Assay results reported in patent US20260035367A1 (Celgene Corporation, priority 2021, published 2026).
Read-outs that look alike come from different tables or passages of the source.

Experiments:
[1] = biological target: T1, Recombinant human PKC-theta (His-tagged 362-706) (Homo sapiens, UniProt Q04759); assay: PKC-theta inhibition assay (HTRF KinEASE kit); type: biochemical; conditions: ATP 6.5 μM, STK substrate 525 nM
T1 construct: Recombinant human PKC-theta (His-tagged 362-706); His
Outline: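 IC50 values were from 4-parameter logistic fits of percent inhibition, based on acceptor/donor HTRF ratios over 10 semi-log compound doses. Kinase reactions, started with substrate plus ATP, ran 30 min at 25 °C in buffer supplemented with 10 mM MgCl2, 1 mM DTT and 0.1% Tween 20; detection lasted 2 h.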

[2] = biological target: T2, Recombinant human PKC-delta (His-tagged 345-676) (Homo sapiens, UniProt Q05655); assay: PKC-delta inhibition assay (HTRF KinEASE kit); type: biochemical; conditions: ratio, PKC-theta vs PKC-delta HTRF; for PKC-theta/PKC-delta selectivity (binned): binned A to G
T2 construct: PKC-delta (His-tagged 345-676); His
Method: PKC-theta and PKC-delta biochemical activities were measured using the PKC-theta HTRF KinEASEkit kit, according to manufacturer's instructions (Cisbio, catalogue number 61ST1PEJ). Briefly, the kinase buffer component of the kit was supplemented with 10 mM MgCl2, 1 mM DTT and 0.1% Tween 20. […] The streptavidin_XL665 and STK antibody-cryptate detection reagents were mixed according to the manufacturer's instructions. Test compounds were diluted in DMSO in a series of 10 semi-log step doses; 10 nL of each compound dose were dispensed in 384 well plates. […] The reaction was started by addition of the substrate and ATP and incubated at 25° C. for 30 minutes or 20 minutes for the PKC-theta and PKC-delta assays, respectively. The detection reagents were added, and the plate was incubated in the dark for 2 hours. […] The ratio of acceptor and donor emission signals was calculated for each well.

[3] = test system: IL-2 secretion by human effector memory T cells (TEM); assay: Effector memory T cells IL-2 release assay (CD3/CD28 stimulation, HTRF IL-2 detection); type: cell-based; conditions: 24 h; for IC50: Homo sapiens, T-cell
Outline: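 Human effector memory T cells from healthy-donor buffy coats were exposed in triplicate to ten semi-log doses of compound in 0.1% DMSO. The cells were stimulated and incubated 24 h at 37 °C. Secreted IL-2 in the supernatant was measured by HTRF.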

[4] = binned A to H, read-out: PKC-theta HTRF pIC50 (binned) (converted)
[5] = read-out: PKC-theta HTRF pIC50 (converted)
[6] = binned A to G, read-out: PKC-theta IL2 pIC50 (binned) (converted)
[7] = read-out: PKC-theta IL2 pIC50 (converted)

T1 sequence (Q04759 362-706): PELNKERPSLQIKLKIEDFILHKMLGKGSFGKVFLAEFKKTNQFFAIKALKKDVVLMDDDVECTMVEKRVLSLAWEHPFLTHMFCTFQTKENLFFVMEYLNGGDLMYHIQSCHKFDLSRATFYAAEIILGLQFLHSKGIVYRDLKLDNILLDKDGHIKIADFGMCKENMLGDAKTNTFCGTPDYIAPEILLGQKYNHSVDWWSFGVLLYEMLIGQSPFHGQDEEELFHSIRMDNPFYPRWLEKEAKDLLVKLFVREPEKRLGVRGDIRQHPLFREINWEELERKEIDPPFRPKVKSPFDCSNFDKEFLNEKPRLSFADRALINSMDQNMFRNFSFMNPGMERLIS
T2 sequence (Q05655 345-676): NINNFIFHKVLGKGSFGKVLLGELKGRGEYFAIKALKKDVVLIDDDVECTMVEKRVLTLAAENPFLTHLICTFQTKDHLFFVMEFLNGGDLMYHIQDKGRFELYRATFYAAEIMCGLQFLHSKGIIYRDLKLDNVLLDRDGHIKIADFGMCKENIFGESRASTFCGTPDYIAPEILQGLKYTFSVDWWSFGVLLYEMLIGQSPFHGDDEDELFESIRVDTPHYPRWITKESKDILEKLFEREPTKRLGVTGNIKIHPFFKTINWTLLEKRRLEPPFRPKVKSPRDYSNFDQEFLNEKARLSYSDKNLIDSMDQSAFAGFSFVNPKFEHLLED

Row | SMILES | IC50 [1, 4] [nM] | IC50 [1, 5] [nM] | PKC-theta/PKC-delta selectivity [2] | PKC-theta/PKC-delta selectivity (binned) [2] | IC50 [3, 6] [nM] | IC50 [3, 7] [nM] | PKC-theta IL2 pIC50 (binned) ([3]; binned A to G)
1 | CCC1(O)C(=O)Nc2nccc(-c3cc(C(F)(F)F)cc(N4CCN[C@@H](C)C4)n3)c21 (stereo partly drawn) [Example 111] | 3.16 to 10 | 5.01 | 17 | D (a ratio of between 10 and 20) | 100 to 316 | 126 | 
2 | COC1(C)C(=O)Nc2nccc(-c3cc(C(F)(F)F)cc(N4CCN[C@@H](C)C4)n3)c21 (stereo partly drawn) [Example 112] | 10 to 31.6 | 15.8 | 20 | C (a ratio of between 20 and 30) | 100 to 316 | 251 | 
3 | CCC1(O)C(=O)Nc2nccc(-c3cc(Cl)cc(N4CCN[C@@H](C)C4)n3)c21 (stereo partly drawn) [Example 113] | 1 to 3.16 | 3.16 | 22 | C (a ratio of between 20 and 30) | 31.6 to 100 | 79.4 | 
4 | CCC1(C)C(=O)Nc2nccc(-c3cc(C(F)(F)F)cc(N4CCN[C@@H](C)C4)n3)c21 (stereo partly drawn) [Example 114] | 3.16 to 10 | 5.01 | 13 | D (a ratio of between 10 and 20) | 31.6 to 100 | 63.1 | 
5 | COC1(C)C(=O)Nc2nccc(-c3cc(Cl)cc(N4CCN[C@@H](C)C4)n3)c21 (stereo partly drawn) [Example 115] | 3.16 to 10 | 10 | 12 | D (a ratio of between 10 and 20) | 100 to 316 | 158 | 
6 | C[C@@H](O)[C@H]1CN(c2cc(C(F)(F)F)cc(-c3ccnc4c3C(C)(C)C(=O)N4)n2)CCN1 [Example 116] | 3.16 to 10 | 5.01 | 10 | D (a ratio of between 10 and 20) | 100 to 316 | 126 | 
7 | C[C@@H]1CN(c2cc(C(F)(F)F)cc(-c3ccnc4c3C(C)(C)C(=O)N4)n2)[C@@H](C)CN1 [Example 117] | 10 to 31.6 | 12.6 | 10 | D (a ratio of between 10 and 20) | 100 to 316 | 200 | 
8 | COC[C@@H]1CN(c2cc(C(F)(F)F)cc(-c3ccnc4c3C(C)(C)C(=O)N4)n2)CCN1 [Example 120] | 10 to 31.6 | 25.1 | 15 | D (a ratio of between 10 and 20) | 316 to 1000 | 501 | 
9 | C[C@H](O)[C@@H]1CN(c2cc(C(F)(F)F)cc(-c3ccnc4c3C(C)(C)C(=O)N4)n2)CCN1 [Example 121] | 10 to 31.6 | 25.1 | 12 | D (a ratio of between 10 and 20) | 316 to 1000 | 631 | 
10 | CC1(C)C(=O)Nc2nccc(-c3cc(C(F)(F)F)cc(N4CCNC(C(C)(C)O)C4)n3)c21 (stereo not drawn) [Example 124] | 3.16 to 10 | 3.98 | 16 | D (a ratio of between 10 and 20) | 100 to 316 | 158 | 
11 | C[C@@]1(O)C(=O)Nc2nccc(-c3cc(C(F)(F)F)cc(N4CCNC(CC(F)(F)F)C4)n3)c21 (stereo partly drawn) [Example 125] | 10 to 31.6 | 15.8 | 13 | D (a ratio of between 10 and 20) | 316 to 1000 | 398 | 
12 | C[C@@H]1NCCN(c2cc(C(F)(F)F)cc(-c3ccnc4c3[C@](C)(O)C(=O)N4)n2)[C@@H]1C [Example 126] | 1 to 3.16 | 1.26 | 12 | D (a ratio of between 10 and 20) | 10 to 31.6 | 25.1 | 
13 | C[C@H]1NCCN(c2cc(C(F)(F)F)cc(-c3ccnc4c3C(C)(C)C(=O)N4)n2)[C@H]1C [Example 127] | 1 to 3.16 | 1.26 | 15 | D (a ratio of between 10 and 20) |  | 25.1 | C (a measured pIC50 of between 7.5 and 8.0)
14 | CC[C@H]1CN(c2cc(Cl)cc(-c3ccnc4c3C(C)(OC)C(=O)N4)n2)CCN1 (stereo partly drawn) [Example 130] | 3.16 to 10 | 7.94 | 8 | E (a ratio of between 5 and 10) | 100 to 316 | 158 | 
15 | CCC1(O)C(=O)Nc2nccc(-c3cc(C(F)(F)F)cc(N4CCNC[C@H]4C)n3)c21 (stereo partly drawn) [Example 131] | 3.16 to 10 | 3.98 | 6 | E (a ratio of between 5 and 10) | 31.6 to 100 | 39.8 | 
16 | CC[C@H]1CN(c2ccc(Cl)c(-c3ccnc4c3C(O)(CC)C(=O)N4)n2)CCN1 (stereo partly drawn) [Example 132] | 100 to 316 | 100 | 4 | F (a ratio of between 1 and 5) | 316 to 1000 | 1000 | 
17 | CC1(C)C(=O)Nc2nccc(-c3cc(C(F)(F)F)cc(N4C[C@H]5CC[C@@H](C4)N5)n3)c21 [Example 135] | 10 to 31.6 | 20 | 13 | D (a ratio of between 10 and 20) | 100 to 316 | 316 | 
18 | CC1(C)C(=O)Nc2nccc(-c3cc(C(F)(F)F)cc(N4CC5CCC4CN5)n3)c21 (stereo not drawn) [Example 137] | 10 to 31.6 | 12.6 | 16 | D (a ratio of between 10 and 20) | 100 to 316 | 251 | 
19 | C[C@@H]1CNCCN1c1cc(Cl)cc(-c2ccnc3c2C(C)(C)C(=O)N3)n1 [Example 140] | 1 to 3.16 | 1.58 | 6 | E (a ratio of between 5 and 10) | 10 to 31.6 | 12.6 | 
20 | C[C@H]1CN(c2cc(C(F)(F)F)cc(-c3ccnc4c3C(C)(C)C(=O)N4)n2)CCN1 [Example 141] | 3.16 to 10 | 3.98 | 16 | D (a ratio of between 10 and 20) | 31.6 to 100 | 50.1 | 
21 | CC[C@H]1CN(c2cc(C(F)(F)F)cc(-c3ccnc4c3C(C)(C)C(=O)N4)n2)CCN1 [Example 142] | 1 to 3.16 | 2 | 17 | D (a ratio of between 10 and 20) | 31.6 to 100 | 39.8 | 
22 | CC[C@H]1CN(c2cc(Cl)cc(-c3ccnc4c3C(O)(CC)C(=O)N4)n2)CCN1 (stereo partly drawn) [Example 143] | 3.16 to 10 | 3.98 | 8 | E (a ratio of between 5 and 10) | 31.6 to 100 | 31.6 | 
23 | CCC1(C)C(=O)Nc2nccc(-c3cc(C(F)(F)F)cc(N4CCNC[C@H]4C)n3)c21 (stereo partly drawn) [Example 144] | 1 to 3.16 | 1.58 | 23 | C (a ratio of between 20 and 30) | 10 to 31.6 | 25.1 | 
24 | CC[C@H]1CN(c2cc(Cl)cc(-c3ccnc4c3C(C)(C)C(=O)N4)n2)CCN1 [Example 145] | 0.316 to 1 | 0.794 | 25 | C (a ratio of between 20 and 30) | 10 to 31.6 | 15.8 | 
25 | CCC1(C)C(=O)Nc2nccc(-c3cc(Cl)cc(N4CCNC[C@H]4C)n3)c21 (stereo partly drawn) [Example 146] | 1 to 3.16 | 2.51 | 4 | F (a ratio of between 1 and 5) | 10 to 31.6 | 25.1 | 
26 | CCC1(C)C(=O)Nc2nccc(-c3cc(Cl)cc(N4CCN[C@@H](C)C4)n3)c21 (stereo partly drawn) [Example 147] | 1 to 3.16 | 2.51 | 10 | D (a ratio of between 10 and 20) | 31.6 to 100 | 31.6 | 
27 | CC[C@H]1CN(c2cccc(-c3ccnc4c3C(C)(CC)C(=O)N4)n2)CCN1 (stereo partly drawn) [Example 148] | 10 to 31.6 | 20 | 3 | F (a ratio of between 1 and 5) | 100 to 316 | 158 | 
28 | CC1(C)C(=O)Nc2nccc(-c3cc(C(F)(F)F)cc(N4CC5CC(C4)N5)n3)c21 [Example 150] | 31.6 to 100 | 63.1 | 13 | D (a ratio of between 10 and 20) | > 1000 | 1260 | 
29 | C[C@@H]1CNCCN1c1cc(Cl)cc(-c2c(F)cnc3c2C(C)(C)C(=O)N3)n1 [Example 155] | 3.16 to 10 | 3.98 | 17 | D (a ratio of between 10 and 20) | 31.6 to 100 | 50.1 | 
